In PubChem BioAssay AID196 (DTP/NCI, 2004):
Where “and” joins values, the source holds several entries; their conditions need not be identical. Equal entries are not always repeated. Inconclusive results and toxic doses are left out. How the source made its calls: active means survival T/C of 150% or more; inactive means T/C below 125% in these data.

System: BDF1 mice, intracerebral B16 melanoma, median survival T/C
Test: NCI In Vivo Anticancer Drug Screen. Data for tumor model B16 Melanoma (intracerebral) in B6D2F1 (BDF1) mice
Details: endpoint: median survival time, higher = longer survival
Procedure: The antitumor activity of compounds was measured in mice bearing transplantable tumors. Survival or tumor size were measured and the results are expressed as the measurement made in the treated group (T) divided by the measurement made in the vehicle treated control group (C). The tumor model used in this assay is B16 Melanoma (intracerebral) in B6D2F1 (BDF1) mice

[1] = dose: 8.0 mg/kg/injection, schedule: Q01DX009 (ip), vehicle: Klucel (hydroxypropylcellulose) (HPC)
[2] = dose: 16.0 mg/kg/injection, schedule: Q01DX009 (ip), vehicle: Klucel (hydroxypropylcellulose) (HPC)
[3] = dose: 16.0 mg/kg/injection, schedule: Q01DX009 (ip), vehicle: saline with Tween-80
[4] = dose: 32.0 mg/kg/injection, schedule: Q01DX009 (ip), vehicle: Klucel (hydroxypropylcellulose) (HPC)
[5] = dose: 6.25 mg/kg/injection, schedule: Q01DX009 (ip), vehicle: other
[6] = dose: 12.5 mg/kg/injection, schedule: Q01DX009 (ip), vehicle: other

Measured: T/C

O=NN(CCCl)C(=O)NC1CCCCC1
inactive: dose: 2.0 mg/kg/injection, schedule: Q01DX009 (ip), vehicle: Klucel (hydroxypropylcellulose) (HPC) 116 % of control | dose: 2.4 mg/kg/injection, schedule: Q01DX001 (ip), vehicle: other 116 % of control | dose: 4.0 mg/kg/injection, schedule: Q01DX009 (ip), vehicle: other 124 % of control | dose: 4.7 mg/kg/injection, schedule: Q01DX001 (ip), vehicle: other 100 % of control | dose: 7.5 mg/kg/injection, schedule: Q01DX009 (ip), vehicle: saline 118 % of control | dose: 8.0 mg/kg/injection, schedule: Q04DX003 (ip), vehicle: Klucel (hydroxypropylcellulose) (HPC) 102 % of control | dose: 9.5 mg/kg/injection, schedule: Q01DX001 (ip), vehicle: other 121 % of control | dose: 13.0 mg/kg/injection, schedule: Q01DX001 (ip), vehicle: other 118 % of control | dose: 16.0 mg/kg/injection, schedule: Q01DX009 (ip), vehicle: other 118 % of control | dose: 16.0 mg/kg/injection, schedule: Q04DX003 (ip), vehicle: Klucel (hydroxypropylcellulose) (HPC) 102 % of control | dose: 17.8 mg/kg/injection, schedule: Q01DX001 (ip), vehicle: Klucel (hydroxypropylcellulose) (HPC) 113 % of control | dose: 18.9 mg/kg/injection, schedule: Q01DX001 (ip), vehicle: other 123 % of control | [4] 95 % of control | dose: 90.0 mg/kg/injection, schedule: Q01DX001 (ip), vehicle: Klucel (hydroxypropylcellulose) (HPC) 90 % of control
active: [1] 161 % of control | dose: 15.0 mg/kg/injection, schedule: Q01DX009 (ip), vehicle: saline 150 % of control | [2] 154 % of control | [3] 213 % of control | dose: 30.0 mg/kg/injection, schedule: Q01DX009 (ip), vehicle: saline 290 % of control | dose: 32.0 mg/kg/injection, schedule: Q04DX003 (ip), vehicle: saline 220 % of control | dose: 36.0 mg/kg/injection, schedule: Q01DX001 (ip), vehicle: Klucel (hydroxypropylcellulose) (HPC) 224 % of control | dose: 36.0 mg/kg/injection, schedule: Q01DX001 (ip), vehicle: other 338 % of control | dose: 37.8 mg/kg/injection, schedule: Q01DX001 (ip), vehicle: other 173 % of control | dose: 40.0 mg/kg/injection, schedule: Q01DX001 (ip), vehicle: Klucel (hydroxypropylcellulose) (HPC) 150 % of control | dose: 60.0 mg/kg/injection, schedule: Q01DX001 (ip), vehicle: Klucel (hydroxypropylcellulose) (HPC) 202 % of control and 212 % of control

O=c1[nH]cc(F)c(=O)[nH]1
inactive: dose: 5.0 mg/kg/injection, schedule: Q01DX009 (ip), vehicle: saline 104 % of control and 108 % of control | dose: 10.0 mg/kg/injection, schedule: Q01DX009 (ip), vehicle: saline 90 % of control and 116 % of control | dose: 20.0 mg/kg/injection, schedule: Q01DX009 (ip), vehicle: saline 104 % of control and 112 % of control | dose: 40.0 mg/kg/injection, schedule: Q01DX009 (ip), vehicle: saline 87 % of control and 109 % of control

CCCCCCC(=O)O[C@H]1CC[C@H]2[C@@H]3CCC4=CC(=O)CC[C@]4(C)[C@H]3CC[C@]12C
inactive: [1] 107 % of control | [2] 98 % of control | [4] 100 % of control | dose: 64.0 mg/kg/injection, schedule: Q01DX009 (ip), vehicle: Klucel (hydroxypropylcellulose) (HPC) 96 % of control | dose: 128.0 mg/kg/injection, schedule: Q01DX009 (ip), vehicle: Klucel (hydroxypropylcellulose) (HPC) 103 % of control

CN(C)N=Nc1ccc(Cl)c2ncccc12
inactive: dose: 3.12 mg/kg/injection, schedule: Q01DX009 (ip), vehicle: other 108 % of control | [5] 97 % of control | [6] 100 % of control | dose: 50.0 mg/kg/injection, schedule: Q01DX009 (ip), vehicle: other 94 % of control

O=C1c2ccccc2C(=O)c2c(NCCNCCO)ccc(NCCNCCO)c21
inactive: dose: 1.0 mg/kg/injection, schedule: Q01DX005 (ip), vehicle: saline with Tween-80 120 % of control and 111 % of control | dose: 1.0 mg/kg/injection, schedule: Q01DX005 (ip), vehicle: saline 99 % of control and 107 % of control | dose: 2.0 mg/kg/injection, schedule: Q01DX005 (ip), vehicle: saline with Tween-80 118 % of control and 109 % of control | dose: 2.0 mg/kg/injection, schedule: Q01DX005 (ip), vehicle: saline 120 % of control and 99 % of control | dose: 4.0 mg/kg/injection, schedule: Q01DX005 (ip), vehicle: saline with Tween-80 109 % of control | dose: 4.0 mg/kg/injection, schedule: Q01DX005 (ip), vehicle: saline 104 % of control and 112 % of control | dose: 4.0 mg/kg/injection, schedule: Q01DX009 (ip), vehicle: saline with Tween-80 99 % of control and 102 % of control | dose: 4.0 mg/kg/injection, schedule: Q01DX009 (ip), vehicle: saline 95 % of control and 103 % of control | dose: 8.0 mg/kg/injection, schedule: Q01DX009 (ip), vehicle: saline with Tween-80 93 % of control and 102 % of control | dose: 8.0 mg/kg/injection, schedule: Q01DX009 (ip), vehicle: saline 98 % of control and 102 % of control | dose: 16.0 mg/kg/injection, schedule: Q01DX005 (ip), vehicle: Klucel (hydroxypropylcellulose) (HPC) 116 % of control | [3] 100 % of control | dose: 16.0 mg/kg/injection, schedule: Q01DX009 (ip), vehicle: saline 102 % of control and 103 % of control | dose: 32.0 mg/kg/injection, schedule: Q01DX005 (ip), vehicle: Klucel (hydroxypropylcellulose) (HPC) 107 % of control | dose: 32.0 mg/kg/injection, schedule: Q01DX009 (ip), vehicle: saline 86 % of control

CN(C)c1nc(N(C)C)nc(N(C)C)n1
inactive: dose: 100.0 mg/kg/injection, schedule: Q01DX005 (ip), vehicle: saline with Tween-80 91 % of control

COc1ccc2c(c1OC(C)=O)-c1cc(O)cc3c1C(C2)N(C(=O)CN(CCCl)CCCl)CC3 (configuration not stated)
inactive: dose: 3.12 mg/kg/injection, schedule: Q01DX009 (ip), vehicle: saline with Tween-80 96 % of control | dose: 6.25 mg/kg/injection, schedule: Q01DX009 (ip), vehicle: saline with Tween-80 100 % of control | dose: 8.0 mg/kg/injection, schedule: Q01DX005 (ip), vehicle: DMSO 104 % of control | dose: 12.5 mg/kg/injection, schedule: Q01DX009 (ip), vehicle: saline with Tween-80 93 % of control | dose: 16.0 mg/kg/injection, schedule: Q01DX005 (ip), vehicle: DMSO 106 % of control

CN(C)N=Nc1ccc2c(c1)N(C)c1ccc(Cl)cc1S2
inactive: [5] 97 % of control | [6] 101 % of control | dose: 25.0 mg/kg/injection, schedule: Q01DX009 (ip), vehicle: other 102 % of control | dose: 100.0 mg/kg/injection, schedule: Q01DX009 (ip), vehicle: other 112 % of control

O=NN(CCCl)C(=O)NC1[C@H](O)CCC[C@@H]1O (some centres not stated)
active: dose: 12.0 mg/kg/injection, schedule: Q01DX001 (ip), vehicle: saline 152 % of control
inactive: dose: 4.32 mg/kg/injection, schedule: Q01DX001 (ip), vehicle: saline 104 % of control

C[n+]1c2ccccc2nc2c(N)cc(N)cc21
inactive: dose: 4.0 mg/kg/injection, schedule: Q01DX005 (ip), vehicle: suspension in saline 93 % of control | dose: 8.0 mg/kg/injection, schedule: Q01DX005 (ip), vehicle: suspension in saline 92 % of control and 98 % of control | dose: 16.0 mg/kg/injection, schedule: Q01DX005 (ip), vehicle: suspension in saline 100 % of control and 103 % of control | dose: 32.0 mg/kg/injection, schedule: Q01DX005 (ip), vehicle: suspension in saline 93 % of control and 97 % of control

CCC(C)N(C)/N=N/c1nc[nH]c1C(N)=O (configuration not stated)
inactive: dose: 16.0 mg/kg/injection, schedule: Q01DX005 (ip), vehicle: saline with Tween-80 102 % of control | dose: 32.0 mg/kg/injection, schedule: Q01DX005 (ip), vehicle: saline with Tween-80 106 % of control | dose: 64.0 mg/kg/injection, schedule: Q01DX005 (ip), vehicle: saline with Tween-80 112 % of control | dose: 128.0 mg/kg/injection, schedule: Q01DX005 (ip), vehicle: saline with Tween-80 107 % of control

CC(=O)OC1COC(NC(=O)N(CCCl)N=O)C(OC(C)=O)C1OC(C)=O (configuration not stated)
inactive: dose: 0.18 mg/kg/injection, schedule: Q01DX009 (ip), vehicle: saline 104 % of control | dose: 0.37 mg/kg/injection, schedule: Q01DX009 (ip), vehicle: saline 104 % of control | dose: 0.75 mg/kg/injection, schedule: Q01DX009 (ip), vehicle: saline 113 % of control | dose: 1.5 mg/kg/injection, schedule: Q01DX009 (ip), vehicle: saline 113 % of control
